ChEMBL document CHEMBL1201862, “PubChem BioAssay data set” (2004)
Activity calls are given as the source filed them.

What was measured:
Caspase-3 = target: T1, Caspase-3 (Homo sapiens, UniProt P42574); assay type: functional;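 further: Dose-response selectivity test against caspase-3 for candidate inhibitors of sentrin-specific proteases (SENPs)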
T1 sequence (P42574 whole entry): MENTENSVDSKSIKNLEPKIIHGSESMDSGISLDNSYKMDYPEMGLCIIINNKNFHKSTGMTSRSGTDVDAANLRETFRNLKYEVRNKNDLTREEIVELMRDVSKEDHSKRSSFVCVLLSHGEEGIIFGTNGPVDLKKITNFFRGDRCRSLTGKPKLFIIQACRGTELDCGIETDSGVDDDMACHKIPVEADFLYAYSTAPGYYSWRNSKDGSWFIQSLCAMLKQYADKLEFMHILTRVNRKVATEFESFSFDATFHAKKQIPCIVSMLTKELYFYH

[1] = target: T2, Sentrin-specific protease 6 (Homo sapiens, UniProt Q9GZR1); assay type: functional;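 further: Luminescence-based dose-response confirmatory assay of SENP6 inhibition, following up an ultra-high-throughput screen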
T2 sequence (Q9GZR1 whole entry): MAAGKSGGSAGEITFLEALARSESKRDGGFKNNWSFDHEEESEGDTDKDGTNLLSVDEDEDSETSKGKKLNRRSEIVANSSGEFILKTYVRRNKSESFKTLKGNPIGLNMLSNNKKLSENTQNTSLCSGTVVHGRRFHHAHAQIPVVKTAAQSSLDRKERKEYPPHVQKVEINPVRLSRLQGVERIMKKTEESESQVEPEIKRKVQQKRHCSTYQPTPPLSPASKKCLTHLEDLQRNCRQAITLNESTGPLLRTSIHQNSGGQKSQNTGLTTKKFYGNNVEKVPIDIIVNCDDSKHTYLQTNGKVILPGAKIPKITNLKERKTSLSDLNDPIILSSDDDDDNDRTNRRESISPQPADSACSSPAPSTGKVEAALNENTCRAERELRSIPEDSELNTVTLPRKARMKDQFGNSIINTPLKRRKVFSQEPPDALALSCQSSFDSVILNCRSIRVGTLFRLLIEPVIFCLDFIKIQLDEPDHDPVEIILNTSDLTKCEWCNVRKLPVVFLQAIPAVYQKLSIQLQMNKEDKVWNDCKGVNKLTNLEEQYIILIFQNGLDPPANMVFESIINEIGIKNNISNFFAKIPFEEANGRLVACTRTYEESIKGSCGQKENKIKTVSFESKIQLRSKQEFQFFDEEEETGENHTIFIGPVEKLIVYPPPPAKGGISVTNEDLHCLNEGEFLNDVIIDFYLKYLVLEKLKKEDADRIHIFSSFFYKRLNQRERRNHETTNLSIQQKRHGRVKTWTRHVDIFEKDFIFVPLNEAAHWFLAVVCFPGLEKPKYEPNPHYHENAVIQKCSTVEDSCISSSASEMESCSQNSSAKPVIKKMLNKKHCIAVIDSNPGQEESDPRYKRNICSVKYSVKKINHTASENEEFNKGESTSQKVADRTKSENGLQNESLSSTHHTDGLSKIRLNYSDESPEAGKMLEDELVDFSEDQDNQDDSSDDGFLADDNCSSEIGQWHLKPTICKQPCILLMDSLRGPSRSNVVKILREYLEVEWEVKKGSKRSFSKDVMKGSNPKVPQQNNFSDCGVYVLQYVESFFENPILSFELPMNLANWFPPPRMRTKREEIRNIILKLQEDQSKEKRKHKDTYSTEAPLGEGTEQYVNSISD

[2] = target: T3, Sentrin-specific protease 7 (Homo sapiens, UniProt Q9BQF6); assay type: functional;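 further: Luminescence-based dose-response confirmation of ultra-high-throughput screening hits, measuring inhibition of SENP7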
T3 sequence (Q9BQF6 whole entry): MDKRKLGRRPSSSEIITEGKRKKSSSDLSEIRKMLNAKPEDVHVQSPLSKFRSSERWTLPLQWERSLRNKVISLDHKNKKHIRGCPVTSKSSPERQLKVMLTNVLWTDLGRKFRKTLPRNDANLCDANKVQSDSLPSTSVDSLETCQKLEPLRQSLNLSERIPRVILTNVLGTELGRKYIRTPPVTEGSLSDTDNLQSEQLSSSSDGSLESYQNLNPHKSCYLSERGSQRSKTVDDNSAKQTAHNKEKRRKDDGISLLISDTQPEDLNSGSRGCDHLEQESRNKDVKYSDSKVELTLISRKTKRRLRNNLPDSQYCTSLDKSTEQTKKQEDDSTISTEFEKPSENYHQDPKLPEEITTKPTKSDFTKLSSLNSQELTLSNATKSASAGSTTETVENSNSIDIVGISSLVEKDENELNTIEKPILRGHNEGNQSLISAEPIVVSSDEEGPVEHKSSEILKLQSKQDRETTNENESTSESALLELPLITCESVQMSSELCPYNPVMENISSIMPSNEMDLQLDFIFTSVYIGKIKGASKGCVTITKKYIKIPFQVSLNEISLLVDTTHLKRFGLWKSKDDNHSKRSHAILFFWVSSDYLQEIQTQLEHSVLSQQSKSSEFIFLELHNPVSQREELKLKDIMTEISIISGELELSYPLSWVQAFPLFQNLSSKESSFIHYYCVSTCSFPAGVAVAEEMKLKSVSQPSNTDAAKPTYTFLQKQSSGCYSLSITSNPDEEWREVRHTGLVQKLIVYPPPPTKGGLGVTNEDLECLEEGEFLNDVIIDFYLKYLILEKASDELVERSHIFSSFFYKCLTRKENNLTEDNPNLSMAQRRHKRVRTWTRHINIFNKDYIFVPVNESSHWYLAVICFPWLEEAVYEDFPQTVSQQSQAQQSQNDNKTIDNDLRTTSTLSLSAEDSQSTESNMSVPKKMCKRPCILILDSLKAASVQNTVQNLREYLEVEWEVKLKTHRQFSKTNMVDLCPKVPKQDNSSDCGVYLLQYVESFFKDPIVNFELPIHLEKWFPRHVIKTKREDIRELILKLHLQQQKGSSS

[3] = target: T4, Sentrin-specific protease 8 (Homo sapiens, UniProt Q96LD8); assay type: functional;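 further: luminescence read-out of SENP8 inhibition, dose-response confirmation following an ultra-high-throughput screen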
T4 sequence (Q96LD8 whole entry): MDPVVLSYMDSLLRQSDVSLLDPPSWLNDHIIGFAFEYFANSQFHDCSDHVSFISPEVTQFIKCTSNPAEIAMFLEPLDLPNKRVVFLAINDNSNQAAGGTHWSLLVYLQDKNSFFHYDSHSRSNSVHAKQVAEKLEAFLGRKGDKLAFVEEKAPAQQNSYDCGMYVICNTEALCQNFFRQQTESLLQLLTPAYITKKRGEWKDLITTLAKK

[4] = target: Serine/threonine-protein kinase PAK 4 (Homo sapiens, UniProt O96013); assay type: functional;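 further: value obtained within a kinome profiling panel in which PAK4 was one of the panel members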
Sequence of Serine/threonine-protein kinase PAK 4 (O96013 whole entry): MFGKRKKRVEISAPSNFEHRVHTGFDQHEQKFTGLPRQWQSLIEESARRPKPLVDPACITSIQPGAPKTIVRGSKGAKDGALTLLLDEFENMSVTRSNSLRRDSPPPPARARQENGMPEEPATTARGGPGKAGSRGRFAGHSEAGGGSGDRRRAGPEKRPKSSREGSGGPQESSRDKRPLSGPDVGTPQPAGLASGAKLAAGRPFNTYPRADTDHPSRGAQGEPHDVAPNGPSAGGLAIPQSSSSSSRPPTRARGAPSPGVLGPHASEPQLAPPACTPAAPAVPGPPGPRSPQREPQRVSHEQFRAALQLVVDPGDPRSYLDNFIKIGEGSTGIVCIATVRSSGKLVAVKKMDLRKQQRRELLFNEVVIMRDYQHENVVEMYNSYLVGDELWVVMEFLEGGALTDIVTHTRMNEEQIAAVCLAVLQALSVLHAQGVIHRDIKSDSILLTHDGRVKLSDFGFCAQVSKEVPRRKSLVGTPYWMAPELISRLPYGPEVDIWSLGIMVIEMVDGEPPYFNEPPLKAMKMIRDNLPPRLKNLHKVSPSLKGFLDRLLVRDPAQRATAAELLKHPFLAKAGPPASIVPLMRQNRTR

[5] = target: 5'-AMP-activated protein kinase catalytic subunit alpha-1 (Homo sapiens, UniProt Q13131); assay type: functional
Sequence of 5'-AMP-activated protein kinase catalytic subunit alpha-1 (Q13131 whole entry): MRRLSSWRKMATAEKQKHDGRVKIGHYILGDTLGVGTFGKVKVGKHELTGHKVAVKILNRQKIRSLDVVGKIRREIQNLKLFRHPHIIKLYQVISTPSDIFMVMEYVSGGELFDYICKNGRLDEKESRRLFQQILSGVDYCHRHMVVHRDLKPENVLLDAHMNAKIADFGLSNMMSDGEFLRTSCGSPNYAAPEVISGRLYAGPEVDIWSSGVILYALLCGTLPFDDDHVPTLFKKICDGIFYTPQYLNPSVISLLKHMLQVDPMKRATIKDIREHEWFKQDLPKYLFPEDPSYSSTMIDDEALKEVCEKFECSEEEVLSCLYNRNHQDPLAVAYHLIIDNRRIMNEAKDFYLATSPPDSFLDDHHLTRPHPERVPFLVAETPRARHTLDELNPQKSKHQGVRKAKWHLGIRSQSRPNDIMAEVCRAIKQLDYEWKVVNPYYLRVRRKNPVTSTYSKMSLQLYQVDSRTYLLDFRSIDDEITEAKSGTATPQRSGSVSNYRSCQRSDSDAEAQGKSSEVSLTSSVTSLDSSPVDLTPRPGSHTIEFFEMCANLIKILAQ

[6] = target: Calcium/calmodulin-dependent protein kinase type II subunit alpha (Homo sapiens, UniProt Q9UQM7); assay: Navigating the Kinome. Panel member name: CAMK2A; assay type: functional
Sequence of Calcium/calmodulin-dependent protein kinase type II subunit alpha (Q9UQM7 whole entry): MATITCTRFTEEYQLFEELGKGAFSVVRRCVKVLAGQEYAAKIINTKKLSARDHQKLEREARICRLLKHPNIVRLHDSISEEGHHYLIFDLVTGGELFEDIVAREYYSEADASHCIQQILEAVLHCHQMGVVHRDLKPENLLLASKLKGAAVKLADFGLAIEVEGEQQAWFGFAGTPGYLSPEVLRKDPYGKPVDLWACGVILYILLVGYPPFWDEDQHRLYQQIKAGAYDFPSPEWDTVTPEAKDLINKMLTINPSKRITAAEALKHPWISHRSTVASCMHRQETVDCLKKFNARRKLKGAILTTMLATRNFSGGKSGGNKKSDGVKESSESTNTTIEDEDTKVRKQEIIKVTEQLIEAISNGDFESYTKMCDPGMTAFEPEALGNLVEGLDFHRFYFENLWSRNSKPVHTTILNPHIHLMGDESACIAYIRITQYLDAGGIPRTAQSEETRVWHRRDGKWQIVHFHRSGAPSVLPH

[7] = target: Mitogen-activated protein kinase 8 (Homo sapiens, UniProt P45983); assay type: functional;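 further: value comes from one member of a kinome-wide kinase profiling panel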
Sequence of Mitogen-activated protein kinase 8 (P45983 whole entry): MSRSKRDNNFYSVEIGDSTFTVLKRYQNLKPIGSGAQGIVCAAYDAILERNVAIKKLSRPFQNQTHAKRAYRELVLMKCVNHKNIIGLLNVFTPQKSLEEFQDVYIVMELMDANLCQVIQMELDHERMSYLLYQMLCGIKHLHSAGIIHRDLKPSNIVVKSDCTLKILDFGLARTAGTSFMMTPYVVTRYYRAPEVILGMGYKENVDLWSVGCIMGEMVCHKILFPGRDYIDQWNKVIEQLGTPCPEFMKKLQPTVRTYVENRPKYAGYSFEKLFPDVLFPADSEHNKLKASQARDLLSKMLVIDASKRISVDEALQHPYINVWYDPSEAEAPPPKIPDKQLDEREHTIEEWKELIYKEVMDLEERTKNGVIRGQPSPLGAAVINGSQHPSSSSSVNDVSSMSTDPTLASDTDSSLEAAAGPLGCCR

Streptococcus = assay: GAS UMAA2166 growth inhibition – luminescence, BacTiterGlo, counter-screen for streptokinase expression inhibitor project, dose response (AID 1915); assay type: functional, organism-based;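 further: potency for reduction of bacterial viability or growth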

Row | Ki [4] | Ki [5] | Ki [6] | Ki [7] | Structure (SMILES) | IC50 (Caspase-3) | IC50 [1] | IC50 [2] | IC50 [3] | EC50 (Streptococcus)
1 | – | – | – | – | Cc1ccc(NC(=O)COc2cccc(/C=C3\SC(=S)N(CCC(=O)O)C3=O)c2)cc1Cl | 70 µM (active) | > 100 µM (inactive) | 18.3 µM (active) | 3.14 µM (active) | –
2 | > 5.01 µM (inactive) | > 3.16 µM (inactive) | > 3.98 µM (inactive) | > 5.01 µM (inactive) | COc1cccc(C(C)NC(=O)c2ccc(-c3ccncc3)s2)c1 (stereo not drawn) | – | – | – | – | –
3 | – | – | – | – | O=Nc1c(-c2c(O)[nH]c3cc(Br)ccc23)[nH]c2ccccc12 | 64.3 µM (active) | > 100 µM (inactive) | 5.6 µM (active) | > 100 µM (inactive) | 3.48 µM (active)
